This is an account of results in ChEMBL document CHEMBL5226278, “Pharmacological approaches for targeting cystic fibrosis nonsense mutations” (2020).

The assay is described as follows: Restoration of CFTR chloride channel activity in human HBE cells expressing wild type CFTR assessed as increase in channel function. In kind it is functional.

Take `C[C@H](N)[C@H]1O[C@@H](O[C@@H]2[C@@H](O)[C@H](N)C[C@H](N)[C@H]2O[C@H]2O[C@H]([C@@H](C)O)[C@@H](O)[C@H](O)[C@H]2N)[C@H](O)[C@@H]1O`: the Activity is reported as 7%.
